In patent publication US20120035180A1, “PHARMACEUTICAL COMPOSITION FOR TREATING CANCER COMPRISING CHLORIN E6-FOLIC ACID CONJUGATE COMPOUND AND CHITOSAN” (priority 2009, published 2012):

Test system: sarcoma M-1
Assay: Growth dynamics and growth inhibition of sarcoma M-1 after PDT
Assay type: in vivo, rats
Description: The power density was 0.51 W/cm^2, the output power was 0.4 W, and the spot light diameter was 1 cm. […] Monitoring over radiating power was conducted by a universal power meter included in the laser device “ ? 680-2000”.

[γ-(6-aminohexyl)folic acid]-chlorin e6 [chlorin e6 conjugate]
Growth inhibition rate of sarcoma M-1 of rats in volume to the control (2.5 mg/100 g + 100 J/cm^2 for 1 h, day 21): 94.2 | Growth inhibition rate of sarcoma M-1 of rats in volume to the control (2.5 mg/100 g + 100 J/cm^2 for 1 h, day 24): 93.6 | Growth dynamics of sarcoma M-1 (volume) (2.5 mg/kg + 100 J/cm^2 for 1 h, day 7 after tumor transplant): 0.25 ± 0.03 cm^3 | Growth dynamics of sarcoma M-1 (volume) (2.5 mg/kg + 100 J/cm^2 for 1 h, day 10 after tumor transplant): 0.28 ± 0.03 cm^3 | Growth dynamics of sarcoma M-1 (volume) (2.5 mg/kg + 100 J/cm^2 for 1 h, day 12 after tumor transplant): 0.34 ± 0.06 cm^3 | Growth dynamics of sarcoma M-1 (volume) (2.5 mg/kg + 100 J/cm^2 for 1 h, day 14 after tumor transplant): 0.41 ± 0.09 cm^3 | Growth dynamics of sarcoma M-1 (volume) (2.5 mg/kg + 100 J/cm^2 for 1 h, day 17 after tumor transplant): 0.46 ± 0.11 cm^3 | Growth dynamics of sarcoma M-1 (volume) (2.5 mg/kg + 100 J/cm^2 for 1 h, day 19 after tumor transplant): 0.69 ± 0.27 cm^3 | Growth dynamics of sarcoma M-1 (volume) (2.5 mg/kg + 100 J/cm^2 for 1 h, day 21 after tumor transplant): 0.96 ± 0.38 cm^3 | Growth dynamics of sarcoma M-1 (volume) (2.5 mg/kg + 100 J/cm^2 for 1 h, day 24 after tumor transplant): 1.19 ± 0.48 cm^3 | Growth inhibition rate of sarcoma M-1 of rats in volume to the control (5 mg/100 g + 100 J/cm^2 for 1 h, day 7): 36.9 | Growth inhibition rate of sarcoma M-1 of rats in volume to the control (5 mg/100 g + 100 J/cm^2 for 1 h, day 10): 77.9 | Growth inhibition rate of sarcoma M-1 of rats in volume to the control (5 mg/100 g + 100 J/cm^2 for 1 h, day 12): 89.1 | Growth inhibition rate of sarcoma M-1 of rats in volume to the control (5 mg/100 g + 100 J/cm^2 for 1 h, day 14): 92.6 | Growth inhibition rate of sarcoma M-1 of rats in volume to the control (5 mg/100 g + 100 J/cm^2 for 1 h, day 17): 95.8 | Growth inhibition rate of sarcoma M-1 of rats in volume to the control (5 mg/100 g + 100 J/cm^2 for 1 h, day 19): 95.9 | Growth inhibition rate of sarcoma M-1 of rats in volume to the control (5 mg/100 g + 100 J/cm^2 for 1 h, day 21): 96.9 | Growth inhibition rate of sarcoma M-1 of rats in volume to the control (5 mg/100 g + 100 J/cm^2 for 1 h, day 24): 97.1 | Growth dynamics of sarcoma M-1 (volume) (5 mg/kg + 100 J/cm^2 for 1 h, day 7 after tumor transplant): 0.29 ± 0.02 cm^3 | Growth dynamics of sarcoma M-1 (volume) (5 mg/kg + 100 J/cm^2 for 1 h, day 10 after tumor transplant): 0.300 ± .03 cm^3 | Growth dynamics of sarcoma M-1 (volume) (5 mg/kg + 100 J/cm^2 for 1 h, day 12 after tumor transplant): 0.30 ± 0.03 cm^3 | Growth dynamics of sarcoma M-1 (volume) (5 mg/kg + 100 J/cm^2 for 1 h, day 14 after tumor transplant): 0.30 ± 0.03 cm^3 | Growth dynamics of sarcoma M-1 (volume) (5 mg/kg + 100 J/cm^2 for 1 h, day 17 after tumor transplant): 0.37 ± 0.05 cm^3 | Growth dynamics of sarcoma M-1 (volume) (5 mg/kg + 100 J/cm^2 for 1 h, day 19 after tumor transplant): 0.47 ± 0.11 cm^3 | Growth dynamics of sarcoma M-1 (volume) (5 mg/kg + 100 J/cm^2 for 1 h, day 21 after tumor transplant): 0.50 ± 0.14 cm^3 | Growth dynamics of sarcoma M-1 (volume) (5 mg/kg + 100 J/cm^2 for 1 h, day 24 after tumor transplant): 0.54 ± 0.17 cm^3 | Growth inhibition rate of sarcoma M-1 of rats in volume to the control (10 mg/100 g + 100 J/cm^2 for 1 h, day 7): 56.5 | Growth inhibition rate of sarcoma M-1 of rats in volume to the control (10 mg/100 g + 100 J/cm^2 for 1 h, day 10): 86.0 | Growth inhibition rate of sarcoma M-1 of rats in volume to the control (10 mg/100 g + 100 J/cm^2 for 1 h, day 12): 93.8 | Growth inhibition rate of sarcoma M-1 of rats in volume to the control (10 mg/100 g + 100 J/cm^2 for 1 h, day 14): 95.8 | Growth inhibition rate of sarcoma M-1 of rats in volume to the control (10 mg/100 g + 100 J/cm^2 for 1 h, day 17): 98.1 | Growth inhibition rate of sarcoma M-1 of rats in volume to the control (10 mg/100 g + 100 J/cm^2 for 1 h, day 19): 95.2 | Growth inhibition rate of sarcoma M-1 of rats in volume to the control (10 mg/100 g + 100 J/cm^2 for 1 h, day 21): 98.8 | Growth inhibition rate of sarcoma M-1 of rats in volume to the control (10 mg/100 g + 100 J/cm^2 for 1 h, day 24): 98.9 | Growth dynamics of sarcoma M-1 (volume) (10 mg/kg + 100 J/cm^2 for 1 h, day 7 after tumor transplant): 0.20 ± 0.03 cm^3 | Growth dynamics of sarcoma M-1 (volume) (10 mg/kg + 100 J/cm^2 for 1 h, day 10 after tumor transplant): 0.19 ± 0.04 cm^3 | Growth dynamics of sarcoma M-1 (volume) (10 mg/kg + 100 J/cm^2 for 1 h, day 12 after tumor transplant): 0.17 ± 0.03 cm^3 | Growth dynamics of sarcoma M-1 (volume) (10 mg/kg + 100 J/cm^2 for 1 h, day 14 after tumor transplant): 0.17 ± 0.03 cm^3 | Growth dynamics of sarcoma M-1 (volume) (10 mg/kg + 100 J/cm^2 for 1 h, day 17 after tumor transplant): 0.17 ± 0.03 cm^3 | Growth dynamics of sarcoma M-1 (volume) (10 mg/kg + 100 J/cm^2 for 1 h, day 19 after tumor transplant): 0.17 ± 0.03 cm^3 | Growth dynamics of sarcoma M-1 (volume) (10 mg/kg + 100 J/cm^2 for 1 h, day 21 after tumor transplant): 0.20 ± 0.03 cm^3 | Growth dynamics of sarcoma M-1 (volume) (10 mg/kg + 100 J/cm^2 for 1 h, day 24 after tumor transplant): 0.20 ± 0.03 cm^3
